In US20260373266A1, “PROTEIN DEGRADERS AND USES THEREOF” (KYMERA THERAPEUTICS, INC., priority 2022, published 2026):
Read-outs that look alike come from different tables or passages of the source.

Target: T1, DCAF1 WD40 domain (residues 1077-1390) (Homo sapiens, UniProt Q9Y4B6)
T1 construct: DCAF1 WD40 domain (residues 1077-1390)
Assay: DCAF1 binding assay by SPR (Biacore 8K+), DCAF1-3 KD
Details: 25 °C

T1 sequence (Q9Y4B6 1077-1390): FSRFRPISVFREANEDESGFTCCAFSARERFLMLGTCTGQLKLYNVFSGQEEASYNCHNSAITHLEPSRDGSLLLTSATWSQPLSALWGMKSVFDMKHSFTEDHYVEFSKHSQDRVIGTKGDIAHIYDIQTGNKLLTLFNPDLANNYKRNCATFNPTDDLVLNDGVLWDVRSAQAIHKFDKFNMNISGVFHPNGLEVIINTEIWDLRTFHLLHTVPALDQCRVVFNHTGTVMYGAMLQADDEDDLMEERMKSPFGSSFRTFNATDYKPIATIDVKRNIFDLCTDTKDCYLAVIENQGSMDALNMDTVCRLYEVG

Kd (read-out: DCAF1-3 SPR (KD)) [µM] | Kd (DCAF1-3 SPR (KD)) [µM] | SMILES
> 200 |  | Fc1cccc(N2CC(Nc3cc(N4CCOCC4)ccn3)C2)c1 [I-199]
> 200 |  | Fc1cccc(N2CCC[C@@H](Nc3ncc(N4CCOCC4)s3)C2)c1 [I-328]
10 to 100 |  | N#Cc1ccc(N2CCOCC2)cc1N[C@@H]1CCCN(c2cccc(F)c2)C1 [I-71]
10 to 100 |  | Nc1cnc(N2CCCCC2)nc1N[C@@H]1CCCN(c2cccc(F)c2)C1 [I-1001]
10 to 100 |  | N#Cc1ccccc1N1CCC[C@@H](Nc2cc(N3CCOCC3)ccn2)C1 [I-770]
> 200 |  | Fc1cccc(N2CCNC(Cc3cc(N4CCOCC4)ccn3)C2)c1 (stereo not drawn) [I-224]
> 200 |  | Cc1nn(-c2ccccc2)c(C)c1N1CCC[C@@H](Nc2cc(N3CCOCC3)ccn2)C1 [I-418]
> 200 |  | c1ccc2c(N3CCC[C@@H](Nc4nccc(N5CCOCC5)n4)C3)cccc2c1 [I-52]
10 to 100 |  | COC(=O)Cc1ccnc(N2CCC[C@@H](Nc3cc(N4CCOCC4)ccn3)C2)c1 [I-429]
> 200 |  | Fc1cccc(N2CCC[C@@H](Nc3cc(N4CCOCC4)ncc3C(F)(F)F)C2)c1 [I-405]
> 200 |  | C=CC(=O)N(C)CCN(C)c1ccnc(N[C@@H]2CCCN(c3cccc(F)c3)C2)c1 [I-448]
10 to 100 |  | c1cncc(-c2ccnc(N3CCC[C@@H](Nc4cc(N5CCOCC5)ccn4)C3)n2)c1 [I-416]
10 to 100 |  | NC(=O)[C@@H]1CC[C@H](Nc2cc(N3CCCCC3)ccn2)CN1c1cccc(F)c1 [I-1027]
> 200 |  | Fc1cccc(N2CCC[C@@H](Nc3cc([C@H]4CCCCN4)ccn3)C2)c1 [I-126]
10 to 100 |  | c1cnc2cc(N3CCC[C@@H](Nc4nccc(N5CCOCC5)n4)C3)ccc2c1 [I-45]
> 200 |  | c1ccc2cc(N3CCC[C@@H](Nc4nccc(N5CCOCC5)n4)C3)ccc2c1 [I-32]
> 200 |  | NC(=O)Cc1cccc(N2CCC[C@@H](Nc3cc(N4CCOCC4)ccn3)C2)c1 [I-776]
> 200 |  | Fc1cccc(N2CCC[C@@H](Nc3ncc(N4CCOCC4)o3)C2)c1 [I-327]
> 200 |  | c1cc2ccc(N3CCC[C@@H](Nc4cc(N5CCOCC5)ncn4)C3)cc2cn1 [I-402]
10 to 100 |  | OC[C@H]1CC[C@@H](Nc2cc(N3CCCCC3)ccn2)CN1c1cccc(F)c1 [I-1008]
10 to 100 |  | CN(c1ccccc1)c1ccnc(N[C@@H]2CCCN(c3cccc(F)c3)C2)c1 [I-614]
> 200 |  | c1cnc2c(N3CCC[C@@H](Nc4cc(N5CCOCC5)ncn4)C3)cccc2c1 [I-396]

Kd (read-out: DCAF1-3 SPR (KD)) [µM] | Kd (DCAF1-3 SPR (KD)) [µM] | SMILES
100 to 200 |  | c1cnc2c(N3CCC[C@@H](Nc4nccc(N5CCOCC5)n4)C3)cccc2c1 [I-30]
100 to 200 |  | Fc1cccc(N2CCC[C@@H](Nc3nccc(N4CCCCC4)n3)C2)c1 [I-319]
10 to 100 |  | Fc1ccc(N2CCC[C@@H](Nc3cc(N4CCOCC4)ccn3)C2)cc1F [I-74]
> 200 |  | c1cc(N2CCC[C@@H](Nc3cc(N4CCOCC4)ncn3)C2)c2ccncc2c1 [I-394]
> 200 |  | c1ccc2nc(N3CCC[C@@H](Nc4nccc(N5CCOCC5)n4)C3)ccc2c1 [I-37]
10 to 100 |  | OCCc1cccc(N2CCC[C@@H](Nc3cc(N4CCOCC4)ccn3)C2)c1 [I-861]
> 200 |  | Fc1cccc(N2CCC[C@@H](Nc3nccc(N4CCNCC4)n3)C2)c1 [I-314]
10 to 100 |  | NC[C@@H]1CC[C@@H](Nc2cc(N3CCCCC3)ccn2)CN1c1cccc(F)c1 [I-1023]
10 to 100 |  | CN(c1ccnc(N[C@@H]2CCCN(c3cccc(F)c3)C2)c1)C1CCCC1 [I-555]
10 to 100 |  | CC(=O)Nc1ccc(N2CCC[C@@H]3[C@H]2CCN3c2cc(N3CCCCC3)ccn2)cc1F [I-746]
> 200 |  | Fc1cccc(N2CCC[C@H]3[C@@H]2CCN3c2cc(N3CC4CC(C4)C3)ccn2)c1 [I-624]
< 10 |  | Fc1cccc(N2CCC[C@@H](Nc3cc(N4CC5CCC(CC5)C4)ccn3)C2)c1 [I-618]
10 to 100 |  | OCCC[C@H]1C[C@@H]2[C@@H](CCCN2c2cccc(F)c2)N1c1cc(N2CCCCC2)ccn1 [I-825]
10 to 100 |  | Fc1cccc(N2CCC[C@@H](Nc3cc(N4CC5CC5C4)ccn3)C2)c1 (stereo partly drawn) [I-574]
< 10 |  | Fc1cccc(N2CCC[C@@H](Nc3cc(N4CC5CCC(C5)C4)ccn3)C2)c1 [I-553]
> 200 |  | NCCc1cccc(N2CCC[C@@H](Nc3cc(N4CCOCC4)ccn3)C2)c1 [I-865]
10 to 100 |  | OCCC[C@H]1C[C@@H]2[C@H](CCCN2c2cccc(F)c2)N1c1cc(N2CCCCC2)ccn1 [I-826]
 | 10 to 100 | Fc1cccc(N2CCC[C@@H](Nc3cc(N4CCOCC4)ccn3)C2)c1 [I-29, (R)—N—(I-(3-fluorophenyl)piperidin-3-yl)-4-morpholinopyridin-2-amine]
10 to 100 |  | c1ccc2c(N3CCC[C@@H](Nc4nccc(N5CCOCC5)n4)C3)ccnc2c1 [I-35]
10 to 100 |  | c1ccc(N2CCC[C@@H](Nc3cc(N4CCOCC4)ccn3)C2)cc1 [I-75]
> 200 |  | c1cnc2ccc(N3CCC[C@@H](Nc4cc(N5CCOCC5)ncn4)C3)cc2c1 [I-400]

The remaining lines, values behind:

SMILES | Kd (read-out: DCAF1-3 SPR (KD)) [µM] | Kd (DCAF1-3 SPR (KD)) [µM]
C[C@H]1[C@@H](O)CCCN1c1ccnc(N2CC[C@@H]3[C@H]2CCCN3c2cccc(F)c2)c1 [I-833] | < 10 | 
Cc1sc2c(c1C)C(c1ccc(Cl)cc1)=N[C@@H](CC(=O)NCCOCCOCCOCCOCCOCCOCCC1CCN(c3ccnc(N4CC[C@@H]5[C@H]4CCCN5c4cccc(F)c4)c3)CC1)c1nnc(C)n1-2 [I-895] | 10 to 100 | 
NCCOCCOCCOCCOCCCc1ccc(C(=O)c2[nH]cc(C(=O)N[C@@H](CC(N)=O)c3cccc(Cl)c3)c2-c2c(F)ccc(F)c2F)cc1 [I-791] | < 10 | 
Cc1c(F)ccc(F)c1-c1[nH]ncc1C(=O)N[C@@H](CC(N)=O)c1ccc(F)c(Cl)c1 [I-819] | 10 to 100 | 
NC(=O)C[C@H](NC(=O)C1=C(c2c(F)cccc2F)CCNC1)c1cccc(Cl)c1 [I-550] | 100 to 200 | 
NC(=O)C[C@H](NC(=O)c1cnn(CC2CC2)c1-c1ccccc1F)c1cccc(Cl)c1 [I-133] | 10 to 100 | 
COc1ccc(N2CCC[C@@H]3[C@H]2CCN3c2cc(N3CC4CC(C4)C3)ccn2)cc1F [I-722] | > 200 | 
NC(=O)C[C@H](NC(=O)c1cn[nH]c1-c1cc(CC(=O)O)ccc1F)c1cccc(Cl)c1 [I-285] | 100 to 200 | 
Cc1cc(Cl)cc([C@@H](CC(N)=O)NC(=O)c2cn[nH]c2-c2c(C)cccc2F)c1 [I-738] | < 10 | 
NC(=O)C[C@H](NC(=O)c1n[nH]cc1-c1ccccc1F)c1cccc(Cl)c1 [I-100] | 10 to 100 | 
Fc1cccc(N2CCC[C@]3(CCc4cnc(N5CCOCC5)cc4N3)C2)c1 [I-214] | > 200 | 
C=CC(=O)N1C[C@H](c2ccc(Br)cc2)[C@@H]1C(=O)N1CCN(c2ccnc(N[C@@H]3CCCN(c4cccc(F)c4)C3)c2)CC1 [I-641] | 10 to 100 | 
CS(=O)(=O)CCc1ccc(F)c(-c2[nH]ncc2C(=O)N[C@@H](CC(N)=O)c2cccc(Cl)c2)c1 [I-247] | > 200 | 
COCCn1cc(C(=O)N[C@@H](CC(N)=O)c2cccc(Cl)c2)c(-c2ccccc2F)n1 [I-120] | 10 to 100 | 
NC(=O)C[C@H](NC(=O)c1c[nH]c(-c2ccccc2)c1-c1ccccc1F)c1cccc(Cl)c1 [I-594] | < 10 | 
c1cncc(-c2csc(N3CCC[C@@H](Nc4cc(N5CCOCC5)ccn4)C3)n2)c1 [I-412] | > 200 | 

SMILES | Kd (read-out: DCAF1-3 SPR (KD)) [µM] | Kd (DCAF1-3 SPR (KD)) [µM]
Cc1sc2c(c1C)C(c1ccc(Cl)cc1)=N[C@@H](CC(=O)NCCOCCOCCOCCOCCCc1ccc(C(=O)c3[nH]cc(C(=O)N[C@@H](CC(=O)N4CCNCC4)c4cccc(Cl)c4)c3-c3c(F)ccc(F)c3C)cc1)c1nnc(C)n1-2 [I-913] | < 10 | 
Cc1cccc(N2CCC[C@H]3[C@@H]2CCN3c2cc(N3CC4CC(C4)C3)ccn2)c1 [I-711] | 10 to 100 | 
Fc1cccc(N2C[C@H](Nc3cc(N4CCOCC4)ncn3)C3CC[C@H]2C3)c1 [I-383] | > 200 | 
Oc1ccc(N2CCC[C@H]3[C@@H]2CCN3c2cc(N3CC4CC(C4)C3)ccn2)cc1 [I-718] | < 10 | 
NC(=O)C[C@@](NC(=O)c1c[nH]nc1-c1ccccc1F)(C(=O)O)c1cccc(Cl)c1 [I-294] | > 200 | 
c1ccc(COc2cccc(N3CCC[C@@H](Nc4cc(N5CCOCC5)ccn4)C3)c2)cc1 [I-690] | > 200 | 
CC(C)n1ncc(C(=O)N[C@@H](CC(N)=O)c2cccc(Cl)c2)c1-c1ccccc1F [I-134] | 100 to 200 | 
NC(=O)C[C@H](NC(=O)c1c[nH]cc1-c1ccccc1F)c1ccccc1Cl [I-96] | 10 to 100 | 
CCCCCCC[C@H]1CCCN(c2ccnc(N3CC[C@@H]4[C@H]3CCCN4c3cccc(F)c3)c2)C1 [I-727] | > 200 | 
O=C(C[C@H](NC(=O)c1cn[nH]c1-c1ccccc1F)c1cccc(Cl)c1)NC1CC1 [I-142] | > 200 | 
NC(=O)C[C@H](NC(=O)c1cn[nH]c1-c1oncc1O)c1cccc(Cl)c1 [I-161] | > 200 | 
c1ccc2c(N3CCC[C@@H](n4ccc(N5CCOCC5)c5ccnc4-5)C3)nccc2c1 [I-367] | > 200 | 
COC(=O)C[C@H](NC(=O)c1cn[nH]c1-c1ccccc1F)c1cccc(Cl)c1 [I-757] | > 200 | 
Cc1cccc(-c2[nH]ncc2C(=O)N[C@@H](CC(N)=O)c2cccc(Cl)c2)c1F [I-515] | 10 to 100 | 
C[C@H]1CCCC[C@H]1c1[nH]ncc1C(=O)N[C@@H](CC(N)=O)c1cccc(Cl)c1 [I-723] | < 10 | 
CN1CCN(CC2CCN(c3ccnc(N4CC[C@@H]5[C@H]4CCCN5c4cccc(F)c4)c3)CC2)CC1 [I-815] | < 10 | 
